Source: patent publication US7649012B2, “Compounds, pharmaceutical compositions containing same, and methods of use for same” (FASgen, Inc., priority 2002, dated 2010)
≈ marks a conversion by molar mass, not a printed value. Where two headings read alike, the source gives them in different places.

Tests used:
[1] = system: MCF-7 human breast cancer cells; test: Crystal violet cell growth assay; format: cell-based; details: MCF7, MCF-7, 72 hours, read-out: Cr. Violet(IC50)
Description: The crystal violet assay measure cell growth but not cytotoxicity. This assay employs crystal violet staining of fixed cells in 96-well plates with subsequent solubilization and measurement of OD490 on a spectrophotometer. The OD490 corresponds to cell growth per unit time measured. Cells are treated with the compounds of interest or vehicle controls and IC50 for each compound is computed.
To measure the cytotoxicity of specific compounds against cancer cells, 5×10^4 MCF-7 human breast cancer cells, obtained from the American Type Culture Collection are plated per well in 24 well plates in DMEM medium with 10% fetal bovine serum, penicillin, and streptomycin. Following overnight culture at 37° C. and 5% CO2, the compounds to be tested, dissolved in DMSO, are added to the wells in 1 μl volume at the following concentrations: 50, 40, 30, 20, and 10 μg/ml in triplicate. Additional concentrations are tested if required. 1 μl of DMSO is added to triplicate wells are the vehicle control. C75 is run at 10, and 5 μg/ml in triplicate as positive controls.
After 72 hours of incubation, cells are stained with 0.5 ml of Crystal Violet stain (0.5% in 25% methanol) in each well. After 10 minutes, wells are rinsed, air dried, and then solubilized with 0.5 ml 10% sodium dodecylsulfate with shaking for 2 hours.

purified human FAS = biological target: T1, purified human FAS (Homo sapiens, UniProt P49327); test: Measurement of FAS enzymatic activity (NADPH oxidation), IC50; format: biochemical
T1 construct: Human FAS was purified from cultured ZR-75-1 human breast cancer cells; endogenous in cells; host or cells: ZR-75-1 human breast cancer cells (ATCC); endogenous enzyme purified by PEG precipitation and Mono Q anion exchange
T1 sequence (P49327 whole entry): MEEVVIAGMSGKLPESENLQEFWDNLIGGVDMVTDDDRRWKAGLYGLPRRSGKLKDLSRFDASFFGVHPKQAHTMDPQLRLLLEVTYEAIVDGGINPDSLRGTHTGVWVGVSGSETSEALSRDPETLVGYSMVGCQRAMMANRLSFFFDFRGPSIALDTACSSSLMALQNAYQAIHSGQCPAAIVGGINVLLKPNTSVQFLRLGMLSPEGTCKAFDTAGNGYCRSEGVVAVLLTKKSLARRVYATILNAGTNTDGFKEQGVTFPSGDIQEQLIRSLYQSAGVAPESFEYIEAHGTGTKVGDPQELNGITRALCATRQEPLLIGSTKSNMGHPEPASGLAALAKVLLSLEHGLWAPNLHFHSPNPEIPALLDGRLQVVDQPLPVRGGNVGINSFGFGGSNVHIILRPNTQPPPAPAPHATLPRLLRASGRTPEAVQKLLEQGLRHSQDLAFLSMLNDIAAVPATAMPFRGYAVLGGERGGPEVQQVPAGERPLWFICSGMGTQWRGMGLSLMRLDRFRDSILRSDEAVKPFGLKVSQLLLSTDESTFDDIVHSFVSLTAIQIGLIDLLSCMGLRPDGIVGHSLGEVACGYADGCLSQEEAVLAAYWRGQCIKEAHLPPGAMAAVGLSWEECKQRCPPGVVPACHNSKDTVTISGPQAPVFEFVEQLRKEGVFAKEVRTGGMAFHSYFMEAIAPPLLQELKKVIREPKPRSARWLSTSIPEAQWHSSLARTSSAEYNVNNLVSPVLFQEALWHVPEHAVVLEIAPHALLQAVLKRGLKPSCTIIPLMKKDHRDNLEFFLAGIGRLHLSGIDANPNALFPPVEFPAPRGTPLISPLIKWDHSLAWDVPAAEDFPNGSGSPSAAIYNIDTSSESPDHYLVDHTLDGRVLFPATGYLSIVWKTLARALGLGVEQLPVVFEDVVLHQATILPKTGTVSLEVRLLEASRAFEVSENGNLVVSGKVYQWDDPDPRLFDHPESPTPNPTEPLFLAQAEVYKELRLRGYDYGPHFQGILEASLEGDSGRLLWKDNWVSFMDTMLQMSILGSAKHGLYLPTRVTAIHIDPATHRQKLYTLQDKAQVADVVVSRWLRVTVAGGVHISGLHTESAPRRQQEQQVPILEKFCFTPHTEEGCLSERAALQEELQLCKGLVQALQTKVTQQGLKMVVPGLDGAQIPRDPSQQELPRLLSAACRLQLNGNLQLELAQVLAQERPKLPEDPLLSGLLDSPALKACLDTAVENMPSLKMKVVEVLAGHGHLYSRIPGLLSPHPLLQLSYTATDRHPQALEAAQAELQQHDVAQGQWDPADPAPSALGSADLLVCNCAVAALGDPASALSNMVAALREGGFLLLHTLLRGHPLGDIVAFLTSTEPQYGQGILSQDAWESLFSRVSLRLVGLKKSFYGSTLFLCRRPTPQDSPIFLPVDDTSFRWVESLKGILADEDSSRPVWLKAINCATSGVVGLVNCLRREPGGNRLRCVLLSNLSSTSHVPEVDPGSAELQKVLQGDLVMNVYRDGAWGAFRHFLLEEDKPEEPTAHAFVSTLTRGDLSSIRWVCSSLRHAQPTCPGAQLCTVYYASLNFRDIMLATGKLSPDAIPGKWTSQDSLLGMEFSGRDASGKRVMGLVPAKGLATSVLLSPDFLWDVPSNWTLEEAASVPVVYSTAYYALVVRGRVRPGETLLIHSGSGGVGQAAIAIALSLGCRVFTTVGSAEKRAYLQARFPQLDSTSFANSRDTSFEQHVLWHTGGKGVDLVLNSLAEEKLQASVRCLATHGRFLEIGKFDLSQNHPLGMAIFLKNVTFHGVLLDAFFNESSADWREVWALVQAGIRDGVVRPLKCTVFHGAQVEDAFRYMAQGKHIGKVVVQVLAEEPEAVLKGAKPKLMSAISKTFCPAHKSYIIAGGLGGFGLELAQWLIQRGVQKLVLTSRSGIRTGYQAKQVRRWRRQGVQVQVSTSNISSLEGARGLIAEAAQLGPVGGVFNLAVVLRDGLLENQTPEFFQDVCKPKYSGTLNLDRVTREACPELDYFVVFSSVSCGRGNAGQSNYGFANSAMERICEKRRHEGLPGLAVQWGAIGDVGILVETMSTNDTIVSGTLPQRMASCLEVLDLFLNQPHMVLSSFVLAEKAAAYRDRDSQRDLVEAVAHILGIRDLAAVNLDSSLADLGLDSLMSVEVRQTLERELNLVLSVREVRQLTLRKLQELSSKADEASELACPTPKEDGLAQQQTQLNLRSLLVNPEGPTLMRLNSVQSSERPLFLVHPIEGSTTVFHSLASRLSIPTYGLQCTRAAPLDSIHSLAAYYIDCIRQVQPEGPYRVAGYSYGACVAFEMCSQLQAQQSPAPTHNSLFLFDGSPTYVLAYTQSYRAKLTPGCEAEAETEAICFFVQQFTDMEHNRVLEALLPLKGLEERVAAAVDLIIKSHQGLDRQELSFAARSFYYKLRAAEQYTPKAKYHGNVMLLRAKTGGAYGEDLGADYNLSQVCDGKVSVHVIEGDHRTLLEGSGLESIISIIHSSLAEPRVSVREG
Description: Human FAS was purified from cultured ZR-75-1 human breast cancer cells obtained from the American Type Culture Collection. The procedure, adapted from Linn et al., 1981, and Kuhajda et al., 1994, utilizes hypotonic lysis, successive polyethyleneglycol (PEG) precipitations, and anion exchange chromatography. […] The lysate is centrifuged in JA-20 rotor (Beckman) at 20,000 rpm for 30 minutes at 4° C. and the supernatant is brought to 42 ml with lysis buffer. A solution of 50% PEG 8000 in lysis buffer is added slowly to the supernatant to a final concentration of 7.5%. After rocking for 60 minutes at 4° C., the solution is centrifuged in JA-20 rotor (Beckman) at 15,000 rpm for 30 minutes at 4° C. […] After the rocking and centrifugation is repeated as above, the pellet is resuspended overnight at 4° C. in 10 ml of Buffer A (20 mM K2HPO4, pH 7.4). After 0.45 μM filtration, the protein solution is applied to a Mono Q 5/5 anion exchange column (Pharmacia). The column is washed for 15 minutes with buffer A at 1 ml/minute, and bound material is eluted with a linear 60-ml gradient over 60 minutes to 1 M KCl. […] FAS protein concentration is determined using the Coomassie Plus Protein Assay Reagent (Pierce) according to manufacturer's specifications using BSA as a standard. This procedure results in substantially pure preparations of FAS (>95%) as judged by Coomassie-stained gels. FAS activity is measured by monitoring the malonyl-CoA dependent oxidation of NADPH spectrophotometrically at OD340 in 96-well plates (Dils et al and […] et al, 1975). […] For each experiment, cerulenin (Sigma) is run as a positive control along with DMSO controls, inhibitors, and blanks (no FAS enzyme) all in duplicate. The assay is performed on a Molecular Devices SpectraMax Plus Spectrophotometer. The plate containing FAS, buffers, inhibitors, and controls are placed in the spectrophotometer heated to 37° C. Using the kinetic protocol, the wells are blanked on duplicate wells containing 100 μl of 100 mM K2HPO4, pH 6.5 and the plate is read at OD340 at 10 sec intervals for 5 minutes to measure any malonyl-CoA independent oxidation of NADPH. The plate is removed from the spectrophotometer and malonyl-CoA (67.4 μM, final concentration per well) and […] (61.8 μM, final concentration per well) are added to each well except to the blanks. The plate is read again as above with the kinetic protocol to measure the malonyl-CoA dependent NADPH oxidation. The difference between the Δ OD340 for the malonyl-CoA dependent and non-malonyl-CoA dependent NADPH oxidation is the specific FAS activity. Because of the purity of the FAS preparation, non-malonyl-CoA dependent NADPH oxidation is negligible. […] Graphs of Δ OD340 versus time are plotted by the SOFTmax PRO software (Molecular Devices) for each compound concentration.

OV = test: XTT cytotoxicity assay, cells marked (OV); format: cell-based

SMILES	IC50 [1]	IC50 (purified human FAS)	FAS(IC50) (purified human FAS)	IC50 (purified human FAS; unit inferred)	IC50 (OV)
C/C=C/C(C)=C/C1(C)SC(=O)C=C1O (stereo not drawn)	> 50 µg/mL	339 µM			
CC/C=C/C=C/C1(C)SC(=O)C=C1O (stereo not drawn)	> 50 µg/mL	238 µM			
C=C/C(C)=C/C1(C)SC(=O)C=C1O (stereo not drawn)	> 50 µg/mL	44.8 µM			
CCCC/C=C/C=C/C1(C)SC(=O)C=C1O (stereo not drawn)	43.9 ± 4.8 µg/mL (≈ 184 µM)	36.1 µM			
CCCCCCC1(C)SC(=O)C=C1O (stereo not drawn)	> 50 µg/mL		Neg		
CCCCCCCCC1(C)SC(=O)C=C1O (stereo not drawn)	28.7 µg/mL (≈ 118 µM)	18.6 µM			
CCCCCCCCC1(C)SC(=O)C(C)=C1O (stereo not drawn)	29.4 ± 4.3 µg/mL (≈ 115 µM)	192 µM			
CCCCCCC1(C)SC(=O)C=C1OC (stereo not drawn)	26.3 ± 4.3 µg/mL (≈ 115 µM)		Neg		
CCCCCCCCC1(C)SC(=O)C=C1OC (stereo not drawn)	21.4 µg/mL (≈ 83.5 µM)		Neg		
CCCCCCCCC1(C)SC(=O)C(C)=C1OC (stereo not drawn)	15.9 ± 1.9 µg/mL (≈ 58.8 µM)		Neg		
C=CCC1=C(OC)C(C)(CCCCCCCC)SC1=O (stereo not drawn)	22.3 µg/mL (≈ 75.2 µM)		Neg		
CCCCCCCC[C@@]1(C)SC(=O)C=C1OCC(=O)O	33.7 µg/mL (≈ 112 µM)		Neg		
CCCCCCCCC1(C)SC(=O)C=C1OC(=O)OCC (stereo not drawn)	31.4 ± 5.7 µg/mL (≈ 99.9 µM)			9.54 µM	
CC1(Cc2ccccc2)SC(=O)C=C1O (stereo not drawn)	> 50 µg/mL		Neg		
COC1=CC(=O)SC1(C)Cc1ccccc1 (stereo not drawn)	20.9 µg/mL (≈ 89.2 µM)		Neg		
CCCCCCCCC1(C)SC(=O)C(C(C)O)=C1OC (stereo not drawn)	23.2 µg/mL (≈ 77.2 µM)	9.32 µM			
CCCCCCCCC1(C)SC(=O)C(C(C)O)=C1O (stereo not drawn)	19.5 µg/mL (≈ 68.1 µM)	11.5 µM			
CCCCCCCCC1(C)SC(=O)C=C1OCC(=O)NNC(=O)c1ccco1 (stereo not drawn)	26.3 µg/mL (≈ 64.4 µM)		Neg		21.3 µg/mL (≈ 52.1 µM)
CCCCCCCCC1(C)SC(=O)C=C1OCC(=O)NNC(C)=O (stereo not drawn)	28.7 µg/mL (≈ 80.5 µM)		Neg		16 µg/mL (≈ 44.9 µM)
CCCCCCCCC1(C)SC(=O)C=C1OCC(=O)NNCc1ccc(Cl)cc1 (stereo not drawn)	< 5 µg/mL		Neg		16 µg/mL (≈ 36.4 µM)

SMILES	IC50 [1]	IC50 (purified human FAS)	FAS(IC50) (purified human FAS)	IC50 (purified human FAS; unit inferred)	IC50 (OV)
C=CCN(C)C(=O)COC1=CC(=O)SC1(C)CCCCCCCC (stereo not drawn)	9 µg/mL (≈ 25.5 µM)		Neg		
CCCCCCCCC1(C)SC(=O)C=C1OCc1ccccc1 (stereo not drawn)	9.5 µg/mL (≈ 28.6 µM)		Neg		27.8 µg/mL (≈ 83.6 µM)
C=CCC1(C)C(=O)S[C@](C)(CCCCCCCC)C1=O (mixture of isomers)	> 50 µg/mL		Neg		
C#CCOC1CC(=O)S[C@]1(C)CCCCCC (mixture of isomers)	12.1 ± 1.5 µg/mL		Neg		
C=CCOC1=CC(=O)S[C@]1(C)CCCCCC (racemic)	8.1 µg/mL (≈ 31.8 µM)		Neg		
C=CCOC1=CC(=O)S[C@]1(C)CCCCCCCC (racemic)	11 µg/mL (≈ 38.9 µM)		Neg		
CCCCCC[C@@]1(C)SC(=O)C=C1OCCCCCl (racemic)	16.3 µg/mL (≈ 53.5 µM)		Neg		
CCCCCCCC[C@@]1(C)SC(=O)C=C1OCCCCCl (racemic)	10.3 ± 0.3 µg/mL (≈ 30.9 µM)		Neg		
CCCCCC[C@@]1(C)SC(=O)C=C1OCC(=O)OCC (racemic)	17 µg/mL (≈ 56.6 µM)		Neg		
CCCCCCCC[C@@]1(C)SC(=O)C=C1OCC(=O)OCC (racemic)	17.9 ± 5.1 µg/mL (≈ 54.5 µM)		Neg		
C=CCNC(=O)COC1=CC(=O)S[C@]1(C)CCCCCCCCCC (racemic)	10.4 µg/mL (≈ 28.3 µM)		Neg		
CCCCCC[C@@]1(C)SC(=O)C=C1OCC(=O)NCC(=O)OC (racemic)	32.5 ± 11.7 µg/mL (≈ 94.6 µM)		Neg		
CCCCCC[C@@]1(C)SC(=O)C=C1OCC(=O)NCC(=O)O (racemic)	> 50 µg/mL		Neg		
CCCCCC[C@@]1(C)SC(=O)C=C1OCC(=O)NCCCBr (racemic)	12.6 ± 3.7 µg/mL (≈ 32.1 µM)		Neg		
CCCCCCCC[C@@]1(C)SC(=O)C=C1OC(=O)OC (racemic)	41.4 ± 14.1 µg/mL (≈ 138 µM)	5.99 µM			
C=CCOC(=O)OC1=CC(=O)S[C@]1(C)CCCCCCCC (racemic)	35.8 µg/mL (≈ 110 µM)	16.8 µM			
CCCCCCCC[C@@]1(C)SC(=O)C=C1OC(=O)CC (racemic)	38.6 µg/mL (≈ 129 µM)		Neg		
CCCCCCCC[C@@]1(C)SC(=O)C(C(C)=O)=C1O (racemic)	8.4 µg/mL (≈ 29.5 µM)		Neg		
CCCCCCCC[C@@]1(C)SC(=O)C(C(=O)C(F)(F)F)=C1O (racemic)	45.3 µg/mL (≈ 134 µM)			121 µM	
CCCCCCCC[C@@]1(C)SC(=O)C=C1OC(=O)NC(C)C (racemic)	22.5 µg/mL (≈ 68.7 µM)	246 µM			
